Experimental data published in paper PMC11597207, “Synthesis and Anti-Inflammatory and Analgesic Potentials of Ethyl 2-(2,5-Dioxo-1-Phenylpyrrolidin-3-yl)-2-Methylpropanoate” (Pharmaceuticals, 2024).

What was measured:
mice = assay: Hot plate antinociceptive test; type: in vivo; conditions: dose 5 mg/kg
5-LOX = biological target: T1, 5-LOX (Homo sapiens, UniProt P09917); assay: 5-LOX inhibitory assay; type: biochemical; conditions: read-out: 5-LOX percent inhibition
T1 construct: purchased Cayman Chemical Batch No.: A3457
T1 sequence (P09917 1-674): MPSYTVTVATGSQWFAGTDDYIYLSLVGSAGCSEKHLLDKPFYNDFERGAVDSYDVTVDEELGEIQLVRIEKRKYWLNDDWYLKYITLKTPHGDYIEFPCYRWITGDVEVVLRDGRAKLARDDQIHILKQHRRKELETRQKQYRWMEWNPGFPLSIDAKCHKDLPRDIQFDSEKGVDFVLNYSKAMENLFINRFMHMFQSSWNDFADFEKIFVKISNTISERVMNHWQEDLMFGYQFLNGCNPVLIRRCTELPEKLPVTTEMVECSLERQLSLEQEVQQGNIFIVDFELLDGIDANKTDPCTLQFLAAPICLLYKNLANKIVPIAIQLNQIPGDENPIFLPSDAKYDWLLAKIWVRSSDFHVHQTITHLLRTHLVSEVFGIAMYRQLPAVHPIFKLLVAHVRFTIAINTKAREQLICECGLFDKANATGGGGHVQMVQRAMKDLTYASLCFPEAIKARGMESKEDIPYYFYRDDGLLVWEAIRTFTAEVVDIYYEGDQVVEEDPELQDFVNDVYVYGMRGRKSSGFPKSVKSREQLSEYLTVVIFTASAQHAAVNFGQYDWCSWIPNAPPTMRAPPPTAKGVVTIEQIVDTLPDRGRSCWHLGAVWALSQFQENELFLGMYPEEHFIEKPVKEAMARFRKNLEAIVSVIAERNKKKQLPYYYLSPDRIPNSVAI
Method: The activity of MAK01 against the 5-LOX enzyme was investigated using a human recombinant form of 5-LOX [47]. To begin the 5-LOX activity assay, a 10,000 U/mL solution of 5-LOX was prepared in a phosphate buffer with a pH of 6.3. A range of concentrations of the test compounds in the same buffer were prepared for assay. As a substrate for 5-LOX, linoleic acid (80 mM) was diluted with ethyl alcohol and used in the assay. The experiment involved mixing the same amount of both the enzyme solution and the test sample, such as mixing 0.25 mL 5-LOX with 0.25 mL of the compound, both dissolved in buffer. The mixing was followed by incubation at 25 °C for 5 to 10 min. Subsequently, 0.10 mL of the linoleic acid solution was added and allowed to incubate for another 5 min. The absorbance was measured using a UV–visible spectrophotometer at a wavelength of 234 nm, and the percent inhibition was calculated based on the absorbance readings. The same procedure was repeated for different concentrations of the test samples. Zileuton, as a reference drug, was used in comparisons. Using the following formula, the percent inhibition for each sample was calculated: % Inhibition=Abs. of Control−Abs. of Sample/Abs. of Control×100

[1] = system: carrageenan-induced paw edema; assay: Carrageenan-induced paw edema model; type: in vivo; conditions: mice, dose 10 mg/kg
Method: The anti-inflammatory activity of MAK01 was evaluated through a carrageenan-induced paw edema model. The mice, with weights ranging from 25 to 30 g, were separated into five distinct groups, these being Vehicle Group 1, Aspirin Group 2, and different concentrations of MAK01 in Groups 3–5. Each of these groups comprised five mice. The negative control group in the experiment received a specific solution comprising normal saline, DMSO, and Tween-80. The mixture contained 94% normal saline, 5% DMSO, and 1% Tween-80, delivered at a concentration of 10 mL per kg. In contrast, the positive control group in the assay received the comparator aspirin at a precise dose of 10 mg/kg. The test samples were administered at doses of 10 mg/kg, 20 mg/kg, and 30 mg/kg, given intra-peritoneally. After 30 min, a 2% carrageenan suspension (0.2 mL) was administered to each mouse in every group via a subcutaneous injection in the hind paw. In the experiment, a plethysmometer was used to precisely measure inflammation and edema. These measurements were taken at multiple time points both prior to and following the carrageenan administration. Specifically, the readings were recorded at 1, 2, 3, 4, and 5 h intervals to monitor the progress of the inflammatory response and paw swelling. These obtained results were then compared against the outcomes from the negative control group. The gathered data from the experiment, relating to the impact of the newly synthesized compounds on paw edema, were carefully processed to derive the percentage of edema inhibition. Using the below equation, the percent inhibition was calculated. % Inhibition=Ce−Te/Ce×100
In the formula, ‘Ce’ refers to the control group paw edema volume, while ‘Te’ denotes test groups’ paw edema volume.

SMILES: CN1CC[C@]23c4c5ccc(O)c4O[C@H]2[C@@H](O)C=C[C@H]3[C@H]1C5 [Morphine, morphine, reference compound]
- Latency Time (Seconds) on Hot Plate (mice; 30 min): 13.83 ± 0.63 s
- Latency Time (Seconds) on Hot Plate (mice; 60 min): 13.52 ± 0.23 s
- Latency Time (Seconds) on Hot Plate (mice; 90 min): 13.29 ± 0.78 s
- Latency Time (Seconds) on Hot Plate (mice; 120 min): 12.92 ± 0.56 s
- Latency Time (Seconds) on Hot Plate (mice; 150 min): 12.59 ± 0.41 s

SMILES: CC(c1cc2ccccc2s1)N(O)C(N)=O (stereo not drawn) [Zileuton, zileuton, reference compound]
- inhibition at 62.5 µg/mL (5-LOX): 74%
- inhibition at 125 µg/mL (5-LOX): 78%
- inhibition at 250 µg/mL (5-LOX): 81%
- inhibition at 500 µg/mL (5-LOX): 85%
- inhibition at 1000 µg/mL (5-LOX): 94%

SMILES: CC(=O)Oc1ccccc1C(=O)O [Aspirin, aspirin, reference compound]
- Paw Edema Inhibition in Percent ([1]; 1 h): 47.46 ± 0.80%
- Paw Edema Inhibition in Percent ([1]; 2 h): 54.42 ± 1.10%
- Paw Edema Inhibition in Percent ([1]; 3 h): 55.23 ± 0.73%
- Paw Edema Inhibition in Percent ([1]; 4 h): 56.22 ± 1.34%
- Paw Edema Inhibition in Percent ([1]; 5 h): 57.57 ± 1.23%
